Measured values from BindingDB's records for doi:10.1016/0960-894X(96)00185-0 (1996).

Biological target: Human immunodeficiency virus type 1 protease (Human immunodeficiency virus 1, UniProt Q72874)
Experiment: ChEBML_159443
Source text: In vitro inhibitory activity against HIV-1 protease(PR).

IC50	Structure (SMILES)
690 nM	O=c1oc(-c2cccc(Cl)c2)cc(O)c1SCc1ccccc1 [3-Benzylsulfanyl-6-(3-chloro-phenyl)-4-hydroxy-pyran-2-one]
690 nM	O=c1oc(-c2ccc(O)cc2)cc(O)c1SCc1ccccc1 [3-Benzylsulfanyl-4-hydroxy-6-(4-hydroxy-phenyl)-pyran-2-one]
